Assay results as given in US6506799B1, “Methods of treating cardiovascular diseases, dyslipidemia, dyslipoproteinemia, and hypertension with ether compounds” (Esperion Therapeutics, Inc., priority 1999, dated 2003).

Legend:
[1] = test system: chow fed male Sprague-Dawley rats; test: Serum lipids, apolipoproteins and weight gain in chow fed male Sprague-Dawley rats after seven days of treatment; assay type: in vivo, rat
Experimental: Illustrative compounds of the invention were administered daily at a dose of 100 mg/kg to chow fed male Sprague-Dawley rats for seven days in the morning by oral gavage in 1.5% carboxymethylcellulose/0.2% Tween-20 (dosing vehicle). Animals were weighed daily. Animals were allowed free access to rodent chow and water throughout the study. After the seventh dose, animals were sacrificed in the evening and blood serum was assayed for lipoprotein cholesterol profiles, serum triglycerides, total cholesterol VLDL, LDL, and HDL cholesterol, and the ratio of HDL cholesterol to that of VLDL plus LDL cholesterol, apolipoproteins A-I, C-II, C-III, and E by immunoelectrophoresis, and percent weight gain.
The five compounds were tested in two separate experiments. In each experiment, the experimental data were normalized against a control group of rats which received the dosing vehicle alone.

[2] = test system: chow fed obese female Zucker rats; test: Experiments B, C, D, E: serum lipids, glucose, insulin, body and liver weight in obese female Zucker rats, 14 days; assay type: in vivo, rat; conditions: for Body Weight Gain (% of Pretreatment) / HDL-Cholesterol (% of Pretreatment) / Non HDL-Cholesterol (% of Pretreatment) / Triglycerides (% of Pretreatment): 14 days
Experimental: In a number of different experiments, illustrative compounds of the invention and troglitazone were administered daily at various doses to 10-week old chow fed obese female Zucker rats for 14 days in the morning by oral gavage in 1.5% carboxymethylcellulose/0.2% Tween-20 (dosing vehicle). Animals were weighed daily. Animals were allowed free access to rodent chow and water throughout the study. Blood glucose was determined after a 6-hour fast in the afternoon without anesthesia from a tail vein. Serum was also prepared from a blood sample subsequently obtained from the orbital venous plexus (with O2/CO2 anesthesia) prior to and after one week treatment and used lipid and insulin determinations. At two weeks, blood glucose was again determined after a 6-hour fast without anesthesia from a tail vein. Soon thereafter, animals were sacrificed by CO2 inhalation in the evening and cardiac blood serum was collected and assessed for various lipids and insulin. Body weight was determined daily prior to dosing and at the time of euthanasia.

[3] = test system: LDL receptor deficient mice; test: Lipoprotein cholesterol profile in LDL receptor-deficient mice; assay type: in vivo; conditions: 300 mg/kg/day, chow-fed female mice
Excerpt: The effect of Compound A on LDL levels in a murine model of homozygous familial hypercholesterolemia (Ishibashi et al., 1993, J. Clin. Invest. 92:883-893; Ishibashi et al., 1994, J. Clin. Invest. 93:1885-1893) was studied. LDL receptor-deficient mice have elevated LDL cholesterol relative to wild type mice when fed a chow diet. When fed cholesterol-enriched diets, these mice develop atherosclerosis.

3T3-L1 cells = test: Insulin sensitization: 14C-acetate incorporation into lipids in 3T3-L1 preadipocytes; assay type: cell-based; conditions: preadipocytes treated 4 days; insulin-dependent (30 nM insulin); FIG. 20
Experimental: The effects of Compound A on rate of differentiation of 3T3-L1 cells from a “committed pre-adipocyte” to an “adipocyte” phenotype in the absence or presence of insulin is tested. The differentiation of 3T3-L1 cells to an adipocyte-like phenotype is highly dependent upon insulin. […] In this assay the degree of differentiation was a reflection of the rate of lipid synthesis, as measured through incorporation of ^14C-acetate over 2 hours.
3T3-L1 stem cells were induced to differentiate with dexamethasone, isobutylmethylxanthine and insulin (Green and Kehinde, 1975, Cell 5:19-27). Cells were plated in Dulbecco's modified Eagle medium containing 10% calf serum and grown to confluence. Cells were then refreshed with 10% fetal calf serum, and treated with 0.5 mM isobutylmethylxanthine and 250 nM dexamethasone, but no additional insulin, for 48 hours. […]
The preadipocytes were then treated for 4 days with various concentrations of Compound A in 5% fetal calf serum in Dulbecco's modified Eagles medium, with or without a submaximal concentration of insulin (30 nM). […] Cell were then washed with phosphate buffered saline, lysed with 0.1 N NaOH, and ^14C-acetate incorporation into lipids was determined using phase separation and liquid scintillation counting.

[4] = 100 mg/kg, 7 days, compared to control, FIG. 3
[5] = 100 mg/kg, 7 days, vs vehicle, FIG. 2
[6] = 100 mg/kg/day oral gavage, 7 days, normalized against vehicle control
[7] = Experiment C, 100 mg/kg, after two weeks of treatment

## CC(C)(CO)CCCCOCCCCC(C)(C)CO [Compound A, 6-(6-hydroxy-5,5-dimethylhexyloxy)-2,2-dimethyl-hexan-1-ol]
[1]; [4]
  elevation of apolipoprotein A-I: 16%
  elevation of apolipoprotein E: 46%
  reduction of apolipoprotein C-II: 20%
  reduction of apolipoprotein C-III: 16%
[1]; 100 mg/kg, 7 days, control 2.6±0.2
  ratio of HDL to non-HDL cholesterol (VLDL plus LDL): 6.2±1.0
[1]; 100 mg/kg, 7 days, vs control
  improvement in the ratio of HDL to non-HDL cholesterol: 2.44 fold
[1]; 100 mg/kg, 7 days, vs vehicle
  change in VLDL cholesterol: no change
  elevation in HDL cholesterol: 49%
  reduction in LDL cholesterol: 41%
[1]; [5]
  elevation of total serum cholesterol: 26%
  reduction of serum triglycerides: 31%
[1]; 100 mg/kg, after seven days, control 68.3±1.2%
  percentage body weight gain: 63.4±1.9%
[1]; [6]
  HDL-Cholesterol (% change): +21.1 % change
  LDL-Cholesterol (% change): −27.7 % change
  Triglyceride (% change): +7.6 % change
[2]; Experiment C, 1 mg/kg/day
  Body Weight Gain (% of Pretreatment): +16.7 % of Pretreatment
  HDL-Cholesterol (% of Pretreatment): −24.1 % of Pretreatment
  Non HDL-Cholesterol (% of Pretreatment): −25.6 % of Pretreatment
  Triglycerides (% of Pretreatment): −8.8 % of Pretreatment
[2]; Experiment C, 3 mg/kg/day
  Body Weight Gain (% of Pretreatment): +17.5 % of Pretreatment
  HDL-Cholesterol (% of Pretreatment): −3.7 % of Pretreatment
  Non HDL-Cholesterol (% of Pretreatment): −29.6 % of Pretreatment
  Triglycerides (% of Pretreatment): −24.6 % of Pretreatment
[2]; Experiment C, 10 mg/kg/day
  Body Weight Gain (% of Pretreatment): +10.7 % of Pretreatment
  HDL-Cholesterol (% of Pretreatment): +154.4 % of Pretreatment
  Non HDL-Cholesterol (% of Pretreatment): −14.2 % of Pretreatment
  Triglycerides (% of Pretreatment): −50.9 % of Pretreatment
[2]; Experiment C, 30 mg/kg/day
  Body Weight Gain (% of Pretreatment): +11.3 % of Pretreatment
  HDL-Cholesterol (% of Pretreatment): +369.7 % of Pretreatment
  Non HDL-Cholesterol (% of Pretreatment): +38.4 % of Pretreatment
  Triglycerides (% of Pretreatment): −42.0 % of Pretreatment
[2]; Experiment C, 100 mg/kg
  glucose to insulin ratio: reduced
[2]; Experiment C, 100 mg/kg/day
  Body Weight Gain (% of Pretreatment): +9.2 % of Pretreatment
  HDL-Cholesterol (% of Pretreatment): +801.8 % of Pretreatment
  Non HDL-Cholesterol (% of Pretreatment): +45.1 % of Pretreatment
  Triglycerides (% of Pretreatment): −57.0 % of Pretreatment
[2]; [7]
  HDL-cholesterol increase: 802%
  elevation of HDL-cholesterol: 9 fold
[2]; Experiment C, 100 mg/kg, fasted
  blood glucose: tendency to lower blood glucose
[2]; Experiment C, 1 and 3 mg/kg, two weeks
  glucose to insulin ratio: declined by approximately ⅓ to ½
[2]; Experiment C, 10, 30 and 100 mg/kg, after one and two weeks
  weight gain: markedly reduced
[2]; Experiment C, 10 and 30 mg/kg
  glucose to insulin ratio: sustained at pretreatment levels
[2]; Experiment C, FIG. 10
  minimal effective dose for reduction in serum triglycerides: approximately 3 mg/kg
[2]; Experiment C, FIG. 11
  dose at which elevation of serum total cholesterol begins: approximately 10 mg/kg/day
[2]; Experiment C, after two weeks of treatment, FIG. 16
  percent liver to body weight: increased in a dose dependent manner
[2]; Experiment C, doses 1-100 mg/kg, FIG. 10
  serum triglyceride levels: reduced serum triglyceride levels at all doses
[2]; Experiment C, higher doses (10, 30, 100 mg/kg)
  rise in serum insulin: largely curtailed or minimized
[2]; Experiment D, 10 mg/kg/day
  Body Weight Gain (% of Pretreatment): +2.2 % of Pretreatment
  HDL-Cholesterol (% of Pretreatment): +133.9 % of Pretreatment
  Non HDL-Cholesterol (% of Pretreatment): +49.3 % of Pretreatment
  Triglycerides (% of Pretreatment): −11.1 % of Pretreatment
[2]; Experiment D, 100 mg/kg/day
  Body Weight Gain (% of Pretreatment): +4.5 % of Pretreatment
  HDL-Cholesterol (% of Pretreatment): +187.9 % of Pretreatment
  Non HDL-Cholesterol (% of Pretreatment): +7.5 % of Pretreatment
  Triglycerides (% of Pretreatment): −62.9 % of Pretreatment
[2]; Experiment E, 100 mg/kg/day
  Body Weight Gain (% of Pretreatment): +19.1 % of Pretreatment
  HDL-Cholesterol (% of Pretreatment): +232.1 % of Pretreatment
  Non HDL-Cholesterol (% of Pretreatment): +7.2 % of Pretreatment
  Triglycerides (% of Pretreatment): −43.2 % of Pretreatment
[3]; after one week of treatment
  LDL cholesterol: rapid and significant reduction
[3]; seven daily treatments
  HDL: HDL elevation in all treated mice
3T3-L1 cells
  increase of 14C-acetate incorporation into lipids: approximately 40%
